The results in this text go back to ChEMBL document CHEMBL4680240, “Tail approach synthesis of novel benzenesulfonamides incorporating 1,3,4-oxadiazole hybrids as potent inhibitor of carbonic anhydrase I, II, IX, and XII isoenzymes” (Eur J Med Chem, 2020).

Experiment [1] concerns the target Carbonic anhydrase 2 (Homo sapiens, UniProt P00918). As to the kind of experiment: Inhibition of recombinant human carbonic anhydrase 2 incubated for 10 mins prior to testing measured for 5 to 10 secs by phenol red-based stopped-flow CO2 hydration assay.
Experiment [2] addresses Carbonic anhydrase 9 (Homo sapiens, UniProt Q16790). As to the kind of experiment: Inhibition of recombinant human carbonic anhydrase 9 incubated for 10 mins prior to testing measured for 5 to 10 secs by phenol red-based stopped-flow CO2 hydration assay.
Experiment [3] addresses Carbonic anhydrase 12 (Homo sapiens, UniProt O43570). As to the kind of experiment: Inhibition of recombinant human carbonic anhydrase 12 incubated for 10 mins prior to testing measured for 5 to 10 secs by phenol red-based stopped-flow CO2 hydration assay.
Experiment [4] concerns the target Carbonic anhydrase 1 (Homo sapiens, UniProt P00915). As to the kind of experiment: Inhibition of recombinant human carbonic anhydrase 1 incubated for 10 mins prior to testing measured for 5 to 10 secs by phenol red-based stopped-flow CO2 hydration assay.

Sequence of Carbonic anhydrase 12 (O43570 whole entry): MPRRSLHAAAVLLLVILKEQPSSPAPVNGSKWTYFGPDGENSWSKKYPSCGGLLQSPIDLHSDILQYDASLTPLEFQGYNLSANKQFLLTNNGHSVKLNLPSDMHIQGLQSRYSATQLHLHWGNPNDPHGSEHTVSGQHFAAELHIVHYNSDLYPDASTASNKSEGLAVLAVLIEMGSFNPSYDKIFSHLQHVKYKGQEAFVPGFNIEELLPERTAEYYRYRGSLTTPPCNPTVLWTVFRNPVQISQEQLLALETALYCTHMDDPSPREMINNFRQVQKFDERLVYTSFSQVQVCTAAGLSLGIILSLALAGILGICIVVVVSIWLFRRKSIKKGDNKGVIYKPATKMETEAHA
Sequence of Carbonic anhydrase 1 (P00915 whole entry): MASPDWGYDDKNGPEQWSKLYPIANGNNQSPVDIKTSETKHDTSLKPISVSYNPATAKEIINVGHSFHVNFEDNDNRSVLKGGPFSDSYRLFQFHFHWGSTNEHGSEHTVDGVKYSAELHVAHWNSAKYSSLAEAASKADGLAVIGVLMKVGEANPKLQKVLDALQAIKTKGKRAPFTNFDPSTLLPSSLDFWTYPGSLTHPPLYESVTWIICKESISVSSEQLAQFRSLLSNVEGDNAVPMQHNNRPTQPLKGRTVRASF

As usually defined, the Ki is the equilibrium dissociation constant of an inhibitor or competing ligand from its target. Consider `NS(=O)(=O)c1ccc(-c2nnc(SCC(=O)c3ccc(F)cc3)o2)cc1`, for which the Ki was 69.4 nM in experiment [1], 1980 nM in experiment [2], 2240 nM in experiment [3] and 744 nM in experiment [4].
The corresponding values for `Cc1ccc(C(=O)CSc2nnc(-c3ccc(S(N)(=O)=O)cc3)o2)cc1` are 148 nM, 201 nM, 231 nM and 3320 nM.
The corresponding values for `NS(=O)(=O)c1ccc(-c2nnc(SCC(=O)c3ccc([N+](=O)[O-])cc3)o2)cc1` are 29.5 nM, 633 nM, 294 nM and 70.7 nM.
For `NS(=O)(=O)c1ccc(-c2nnc(SCC(=O)Nc3ccccc3)o2)cc1`, in that order: 61.1 nM, 111 nM, 366 nM and 542 nM.
As for `COc1ccc(C(=O)CSc2nnc(-c3ccc(S(N)(=O)=O)cc3)o2)cc1`, the inhibitory constant (Ki) in experiment [1] was 158 nM; in experiment [2] it was 449 nM; in experiment [3], 3620 nM; in experiment [4], 3810 nM.
The corresponding values for `NS(=O)(=O)c1ccc(-c2nnc(SCC(=O)c3cccc([N+](=O)[O-])c3)o2)cc1` are 58.5 nM, 566 nM, 577 nM and 669 nM.
For `COc1cccc(C(=O)CSc2nnc(-c3ccc(S(N)(=O)=O)cc3)o2)c1`, in that order: 79.6 nM, 1330 nM, 492 nM and 470 nM.
For `NS(=O)(=O)c1ccc(-c2nnc(SCC(=O)c3ccccc3)o2)cc1`, in that order: 347 nM, 757 nM, 265 nM and 1360 nM.
Consider `NS(=O)(=O)c1ccc(-c2nnc(SCC(=O)Nc3ccc(F)cc3)o2)cc1`, for which the Ki in experiment [1] was found to be 85.7 nM; in experiment [2], 163 nM; in experiment [3], 588 nM; in experiment [4], 711 nM.
For `NS(=O)(=O)c1ccc(-c2nnc(SCC(=O)Nc3ccc(Br)cc3)o2)cc1`, in that order: 848 nM, 671 nM, 751 nM and 3900 nM.
For `NS(=O)(=O)c1ccc(-c2nnc(SCC(=O)Nc3cccc([N+](=O)[O-])c3)o2)cc1`, in that order: 7.9 nM, 16.3 nM, 257 nM and 73.2 nM.
Turning to `NS(=O)(=O)c1ccc(-c2nnc(SCC(=O)Nc3ccc(Cl)cc3)o2)cc1`, the Ki in experiment [1] was determined as 96 nM; in experiment [2] it was 757 nM; in experiment [3], 838 nM; in experiment [4], 2080 nM.
The corresponding values for `Cc1ccc(NC(=O)CSc2nnc(-c3ccc(S(N)(=O)=O)cc3)o2)cc1` are 78.7 nM, 74.1 nM, 263 nM and 739 nM.
The corresponding values for `NS(=O)(=O)c1ccc(-c2nnc(SCC(=O)Nc3cccc(Cl)c3)o2)cc1` are 81.9 nM, 50.8 nM, 400 nM and 501 nM.
With `COc1ccc(NC(=O)CSc2nnc(-c3ccc(S(N)(=O)=O)cc3)o2)cc1`, the Ki came out at 53.6 nM in experiment [1], 29 nM in experiment [2], 266 nM in experiment [3] and 2920 nM in experiment [4].
The corresponding values for `NS(=O)(=O)c1ccc(-c2nnc(SCC(=O)c3cccc(Cl)c3)o2)cc1` are 59.2 nM, 1250 nM, 383 nM and 544 nM.
For `NS(=O)(=O)c1ccc(-c2nnc(SCC(=O)c3ccc(Cl)cc3)o2)cc1`, in that order: 67.3 nM, 1320 nM, 840 nM and 595 nM.
For the compound `NS(=O)(=O)c1ccc(-c2nnc(SCC(=O)c3ccc(Br)cc3)o2)cc1`, the Ki in experiment [1] is 67 nM; in experiment [2], 1750 nM; in experiment [3], 636 nM; in experiment [4], 617 nM.
The corresponding values for `NS(=O)(=O)c1ccc(-c2nnc(SCC(=O)Nc3ccc([N+](=O)[O-])cc3)o2)cc1` are 73.1 nM, 256 nM, 737 nM and 762 nM.
The corresponding values for `COc1cccc(NC(=O)CSc2nnc(-c3ccc(S(N)(=O)=O)cc3)o2)c1` are 69.8 nM, 53.1 nM, 690 nM and 673 nM.
